Source: patent US11154515B2, “Pharmaceutical compositions comprising cannabidiol and beta-caryophyllene and methods for their use” (priority 2017, dated 2021)
Where two headings read alike, the source gives them in different places.

Legend:
[1] = test system: NF-κB and AP-1 inducible SEAP reporter in RAW-Blue™ cells; assay: RAW-Blue™ cells Quanti-Blue™ SEAP reporter assay, LPS-stimulated (high-throughput inflammatory assay); assay type: cell-based, murine
Text: RAW 264.7 macrophages are commonly used to study the functional characteristics of the endocannabinoid system (ECS). Specifically, this model is widely employed to assess the anti-inflammatory functions of the ECS (Carrier, et al. 2006, “Inhibition of an equilibrative nucleoside transporter by cannabidiol: A mechanism of cannabinoid immunosuppression,” PNAS, 103(20), 7895-7900). RAW-Blue™ cells are derived from RAW 264.7 macrophages and are genetically modified to comprise a secreted embryonic alkaline phosphatase (SEAP) reporter construct that is inducible by NF-κB and AP-1. These RAW-Blue™ cells express a variety of pattern recognition receptors, including Toll like receptor 4 (TLR4). The activation of these pattern recognition receptors on the RAW-Blue™ cells (e.g., by lipopolysaccharide (LPS) in the case of TLR4) induces signaling through NF-κB and/or AP-1, thereby leading to increased secretion of the SEAP reporter gene. Therefore, the RAW-Blue™ macrophages and provide a robust, high-throughput model of inflammatory processes.
RAW-Blue™ cells were cultured in high-glucose containing Dulbecco's Modified Eagle Medium (Merck) supplemented with 10 (V/V) % fetal bovine serum (FBS; ThermoFisher), 2-4 mM L-glutamine, 50 U/mL penicillin, 50 μg/mL streptomycin as well as with antibiotics for selection: 100 μg/mL Normocin™ (InvivoGen) and Zeocin™ (InvivoGen). Cells were cultured at 37° C. in humidified, 5% CO2 containing atmosphere. The medium was changed every other day, and cells were sub-cultured at 70-80% confluence.
For each of these phases, 100,000 RAW-Blue™ cells/well were seeded in a 96-well plate in triplicate and cultured for 24 hours to allow attachment of the macrophages to the cell culture plate. After 24 hrs cells were pre-treated with selected concentrations of CBD, BCP, or CBD+BCP. Two hours after drug pre-treatment, cells were stimulated with 0.1 μg/mL LPS (Sigma-Aldrich) to induce activation of the TLR4 pathway. After 24 hours of LPS stimulation, 150 μL Quanti-Blue™ Medium was aliquoted per well in a 96-well plate and 50 μL of the experimental supernatants were added per well. Cell culture medium was used as negative control. After 1 hour incubation, SEAP levels were detected by measuring absorbance levels at λ=650 nm at 37° C. Results are expressed as a % decrease in SEAP levels in drug-treated, LPS-stimulated groups compared to the SEAP level of the untreated, LPS-stimulated group (regarded as 100%). All experiments were repeated 2-3 times.

[2] = test system: RAW-Blue™ cells; assay: MTT cell viability assay, RAW-Blue™ cells; conditions: CBD 30 μM; BCP 300 μM
[3] = test system: OXA-induced ear edema, ACD mouse model; assay: Oxazolone-induced allergic contact dermatitis model, ear edema; assay type: in vivo; conditions: for OXA-induced edema formation: topically applied 1 μM
Method: Prednisolone was solved in 1:1 of DMSO/saline and was administered topically (15-15 μL to the inner and outer surface of the ears). All other test compounds were solved in 96% ethanol. All solutions of all the concentrations were prepared freshly on the first day of every experiment and were stored at 4° C., then shaken properly before the treatments.
Anesthesia was induced by ketamine (Richter Gedeon, Budapest, Hungary) (100 mg/kg i.p., repeated as required) with xylazine (Lavet Ltd., Budapest, Hungary) (5 mg/kg i.m.). Animals were sensitized on two consecutive days by painting 2% oxazolone (50-50 μL, Merck KGaA) on the shaved abdomen. On the 6th day the right ears were smeared with 2% oxazolone (OXA) dissolved in 96% ethanol: 15-15 μL solution was applied on each of the inner and outer surfaces. Control ears were treated with 96% ethanol in the same way. Drug-treated groups were treated with 15-15 μL of drug solution smeared to the inner and outer side of the ears every 4 hrs of the experiment after oxazolone treatment. A schematic of the experimental protocol is provided in FIG. 24 and the experimental groups are defined below. • (a) Group 1: Ethanol-treated Controls: left ear: 96% ethanol, right ear: 2% oxazolone • (b) Group 2: 1 μM CBD • (c) Group 3: 10 μM CBD • (d) Group 4: 1 μM HU101 • (e) Group 5: 10 μMHU101
Ear thickness was measured with an engineer's micrometer, with 0.1 mm accuracy, before challenge with test agents and after the challenge at different time points. Data are expressed as % increase of ear thickness compared to the initial values.
Results are expressed as mean±SEM. Comparisons between different treatment groups were performed using two-way ANOVA followed by Sidak's post hoc test for skin thickness and one-way ANOVA followed by Bonferroni's post hoc test for MPO and vascular leakage. * p<0.05 was considered to be significant.

[4] = Mus musculus, RAW-Blue, read-out: % Inhibition Alone

**Q.** With C=C1CC/C=C(\C)CC[C@H]2[C@H]1CC2(C)C [BCP, (E)-beta-caryophyllene] as the compound, how does the inhibition at 0.0001 µM [1, 4] read?
**A.** The inhibition at 0.0001 µM was 0%.

**Q.** And the inhibition at 0.001 µM [1, 4]?
**A.** The inhibition at 0.001 µM was 1 ± 0.8%.

**Q.** And the inhibition at 0.01 µM [1, 4]?
**A.** Its inhibition at 0.01 µM is 3.8 ± 1.9%.

**Q.** What about the inhibition at 0.013 µM [1, 4] of the same compound?
**A.** The inhibition at 0.013 µM was 9.2%.

**Q.** And the inhibition at 0.1 µM [1, 4]?
**A.** The inhibition at 0.1 µM was 8 ± 6.4%.

**Q.** And the inhibition at 0.13 µM [1, 4]?
**A.** Its inhibition at 0.13 µM is 0%.

**Q.** And the inhibition at 0.3 µM [1, 4]?
**A.** Its inhibition at 0.3 µM is 1.6 ± 1.4%.

**Q.** And the inhibition at 1 µM [1, 4]?
**A.** The inhibition at 1 µM was 2.5 ± 2%.

**Q.** And the inhibition at 3 µM [1, 4]?
**A.** Its inhibition at 3 µM is 1.25 ± 1%.

**Q.** What about the inhibition at 10 µM [1, 4] of the same compound?
**A.** Its inhibition at 10 µM is 28.6 ± 14.3%.

**Q.** What about the inhibition at 30 µM [1, 4] of the same compound?
**A.** The inhibition at 30 µM was 0%.

**Q.** What about the inhibition at 100 µM [1, 4] of the same compound?
**A.** The inhibition at 100 µM was 11.7 ± 5.8%.

**Q.** What about the inhibition at 300 µM [1, 4] of the same compound?
**A.** Its inhibition at 300 µM is 92.2 ± 17.1%.

**Q.** What about the “anti-inflammatory actions when applied alone” value ([1]; SEAP levels) of the same compound?
**A.** Its value is “only minor (if any) anti-inflammatory actions”.

**Q.** What about the “% Inhibition Alone” value ([1]; single agent 300 μM, * possibly cytotoxicity) of the same compound?
**A.** Its value is “*92.2 ± 17.1%”.

**Q.** For C=C(C)[C@@H]1CCC(C)=C[C@H]1c1c(O)cc(CCCCC)cc1O [CBD, cannabidiol], which “toxicity (as determined by MTT assay)” value [2] is on record?
**A.** Its value is “appeared to induce toxicity”.

**Q.** And the inhibition at 10 pM ([1]; Mus musculus, RAW-Blue, single agent 0.00001 μM, read-out: % Inhibition Alone)?
**A.** The inhibition at 10 pM was 1.9 ± 0.9%.

**Q.** What about the inhibition at 0.0001 µM ([1]; Mus musculus, RAW-Blue, single agent 0.0001 μM, read-out: % Inhibition Alone) of the same compound?
**A.** Its inhibition at 0.0001 µM is 2.4 ± 2%.

**Q.** And the inhibition at 0.001 µM ([1]; Mus musculus, RAW-Blue, single agent 0.001 μM, read-out: % Inhibition Alone)?
**A.** The inhibition at 0.001 µM was 3.1 ± 3.1%.

**Q.** And the inhibition at 0.01 µM ([1]; Mus musculus, RAW-Blue, single agent 0.01 μM, read-out: % Inhibition Alone)?
**A.** Its inhibition at 0.01 µM is 5.8 ± 2.9%.

**Q.** And the inhibition at 0.1 µM ([1]; Mus musculus, RAW-Blue, single agent 0.1 μM, read-out: % Inhibition Alone)?
**A.** The inhibition at 0.1 µM was 8.5%.

**Q.** And the inhibition at 0.3 µM ([1]; Mus musculus, RAW-Blue, single agent 0.3 μM, read-out: % Inhibition Alone)?
**A.** Its inhibition at 0.3 µM is 10 ± 0.8%.

**Q.** And the inhibition at 1 µM ([1]; Mus musculus, RAW-Blue, single agent 1 μM, read-out: % Inhibition Alone)?
**A.** Its inhibition at 1 µM is 44.6%.

**Q.** And the inhibition at 3 µM ([1]; Mus musculus, RAW-Blue, single agent 3 μM, read-out: % Inhibition Alone)?
**A.** Its inhibition at 3 µM is 40.5 ± 9.5%.

**Q.** And the inhibition at 10 µM ([1]; Mus musculus, RAW-Blue, single agent 10 μM, read-out: % Inhibition Alone)?
**A.** Its inhibition at 10 µM is 59.3 ± 3.7%.

**Q.** What about the inhibition at 30 µM ([1]; Mus musculus, RAW-Blue, single agent 30 μM, CBD value flagged * possibly cytotoxicity, read-out: % Inhibition Alone) of the same compound?
**A.** Its inhibition at 30 µM is 78 ± 7.9%.

**Q.** What about the “concentrations with marked effects on SEAP levels” value ([1]; applied alone) of the same compound?
**A.** The value was at least 1 µM.

**Q.** What about the “% Inhibition Alone” value ([1]; single agent 30 μM, CBD value flagged * possibly cytotoxicity) of the same compound?
**A.** Its value is “*78 ± 7.9%”.

**Q.** And the “Effect in ACD mouse model, significance of ear edema difference” value ([3]; OXA + CBD 1 μM vs. OXA + CBD 10 μM, 56 h)?
**A.** Its value is “* (* p ≤ 0.05)”.

**Q.** What about the “Effect in ACD mouse model, significance of ear edema difference” value ([3]; OXA vs. OXA + CBD 1 μM, 24 h) of the same compound?
**A.** The value was “** (** p ≤ 0.01)”.

**Q.** What about the OXA-induced edema formation ([3]; 24 hr time-point) of the same compound?
**A.** Its OXA-induced edema formation is “significantly prevented”.

**Q.** What about the OXA-induced edema formation ([3]; later time-points) of the same compound?
**A.** Its OXA-induced edema formation is “only minor”.

**Q.** What about the “anti-inflammatory effect on OXA-induced edema” value ([3]; topically applied 10 μM) of the same compound?
**A.** The value was “did not exert any anti-inflammatory effect”.
